From the supplement of paper PMC8671470

What was measured:
Settings in all cases: 72 h
[1] = test system: MV4-11; assay: cell viability (% survival relative to DMSO control); higher = less cytotoxic
Method: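 8x8 drug-combination matrices (0–5000 nM; rosiglitazone and lestaurtinib 0–1000 nM) were run in MV4-11 cells for 72 h with CellTiter-Glo read-out. Survival is normalised to DMSO and 10 µM bortezomib and clipped at 100%.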

[2] = test system: myeloid leukemia patient primary cells Pat.3; assay: cell viability (% survival relative to DMSO control); higher = less cytotoxic
Summary of the method: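 Thawed mononuclear cells from AML or CML patients were purified on Ficoll and cultured for 72 h in RPMI 1640 with 10% FBS, at 10,000 cells/well, on 384-well plates carrying 70 pre-printed compounds at 1–10,000 nM in five tenfold steps, in duplicate. Viability came from CellTiter-Glo, normalised against DMSO and against 10 μM proteasome inhibitor. Any area under the curve given was derived from log-logistic curve fits in the drc and PharmacoGx R packages, and these fits had four parameters.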

[3] = test system: myeloid leukemia patient primary cells Pat.10; assay: area under dose-response curve (viability, 1 nM-10 uM) (fraction (0-1)); higher = more sensitive
Method: (§1)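 AUC (0–1, higher = more sensitive) of the 5-point dose–response (1 nM–10 µM, 72 h, CellTiter-Glo) in primary AML/CML patient mononuclear cells. 0.030103 is the floor for inactive compounds.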

[4] = test system: myeloid leukemia patient primary cells Pat.1; assay: as above
Method: as §1

[5] = test system: myeloid leukemia patient primary cells Pat.13; assay: as above
Method: as §1

[6] = test system: myeloid leukemia patient primary cells Pat.15; assay: as above
Method: as §1

[7] = test system: myeloid leukemia patient primary cells Pat.5; assay: as above
Method: as §1

[8] = test system: myeloid leukemia patient primary cells Pat.2; assay: as above
Method: as §1

[9] = test system: myeloid leukemia patient primary cells Pat.12; assay: as above
Method: as §1

[10] = test system: myeloid leukemia patient primary cells Pat.8; assay: as above
Method: as §1

[11] = test system: myeloid leukemia patient primary cells Pat.4; assay: as above
Method: as §1

[12] = test system: myeloid leukemia patient primary cells Pat.7; assay: as above
Method: as §1

[13] = test system: myeloid leukemia patient primary cells Pat.11; assay: as above
Method: as §1

[14] = test system: myeloid leukemia patient primary cells Pat.6; assay: as above
Method: as §1

[15] = test system: myeloid leukemia patient primary cells Pat.3; assay: as above
Method: as §1

[16] = test system: myeloid leukemia patient primary cells Pat.9; assay: as above
Method: as §1

[17] = test system: myeloid leukemia patient primary cells Pat.14; assay: as above
Method: as §1

O=C(C1CC1)N1CC[C@@H](C=C2NNC(=O)N2c2ccc(-c3ccc4occc4c3)cc2)C1 + O=C(c1c2ccccc2cc2ccccc12)N1CCC(N2CCC[C@@H](C(=O)N3CCOCC3)C2)CC1 [CP-640186]
cell viability [%], [1]
Settings | drug1 concentration 5 nM | drug1 concentration 10 nM | drug1 concentration 50 nM | drug1 concentration 100 nM | drug1 concentration 500 nM | drug1 concentration 1000 nM | drug1 concentration 5000 nM
drug2 concentration 5 nM | 95.4 | 96.1 | 93.4 | 98.1 | 97.2 | 100 | > 100
drug2 concentration 10 nM | 89.8 | > 100 | > 100 | > 100 | > 100 | > 100 | 88.2
drug2 concentration 50 nM | > 100 | 98.5 | > 100 | > 100 | 83.6 | > 100 | > 100
drug2 concentration 100 nM | 98.3 | > 100 | > 100 | > 100 | > 100 | > 100 | > 100
drug2 concentration 500 nM | > 100 | 91 | 88.9 | 90.1 | > 100 | > 100 | 97.5
drug2 concentration 1000 nM | > 100 | 97.9 | 98.6 | > 100 | > 100 | > 100 | > 100
drug2 concentration 5000 nM | 98.1 | 86 | 96.1 | > 100 | 91.9 | 86.4 | 92.3

O=C(O)C1=CC(=C(c2ccc(O)c(C(=O)O)c2)c2ccc(O)c(C(=O)O)c2)C=CC1=O [Aurintricarboxylic acid]
[2]
Settings | cell viability [%]
1 nM | > 100
10 nM | > 100
100 nM | 99.7
1000 nM | 91.7
10000 nM | > 100

Settings | area under dose-response curve
[3] | < 0.0301
[4] | < 0.0301
[5] | < 0.0301
[6] | < 0.0301
[7] | < 0.0301
[8] | < 0.0301
[9] | < 0.0301
[10] | < 0.0301
[11] | < 0.0301
[12] | < 0.0301
[13] | < 0.0301
[14] | < 0.0301
[15] | 0.0466
[16] | < 0.0301
[17] | < 0.0301

COC(=O)[C@]12CCC(C)(C)C[C@H]1[C@H]1C(=O)C=C3[C@@]4(C)C=C(C#N)C(=O)C(C)(C)[C@@H]4CC[C@@]3(C)[C@]1(C)CC2 [Bardoxolone methyl]
[2]
Settings | cell viability [%]
1 nM | 83.7
10 nM | 74.8
100 nM | 10.9
1000 nM | 0.308
10000 nM | < 0

Settings | area under dose-response curve
[3] | 0.589
[4] | 0.183
[5] | 0.397
[6] | 0.207
[7] | 0.699
[8] | 0.28
[9] | 0.0322
[10] | 0.328
[11] | 0.158
[12] | 0.705
[13] | 0.111
[14] | 0.345
[15] | 0.618
[16] | 0.813
[17] | 0.433

Cc1c(-c2ccc(-c3ccccc3F)cc2)nc2ccc(F)cc2c1C(=O)O [Brequinar]
[2]
Settings | cell viability [%]
1 nM | > 100
10 nM | 58
100 nM | 30
1000 nM | 33.1
10000 nM | 20.7

Settings | area under dose-response curve
[4] | < 0.0301
[5] | < 0.0301
[6] | < 0.0301
[7] | 0.433
[8] | < 0.0301
[9] | < 0.0301
[10] | < 0.0301
[11] | < 0.0301
[13] | < 0.0301
[14] | < 0.0301
[15] | 0.588
[16] | 0.532
[17] | 0.142
